Values joined by “and” are separate entries in the source; they are usually repeats but may differ in a detail not shown here. Identical values can stand only once. “Also recorded” adds a separate entry of the source. Where a SMILES comes first, the peptide text is derived from it. [ ]: non-standard residue; d: D form. Hyp = O=C(O)[C@@H]1C[C@@H](O)CN1
Experiments:
[1] = test system: cytokine and chemokine release in human peripheral blood mononuclear cells (hPBMCs); experiment: Luminex multiplex, 30 cytokines and chemokines, LPS stimulated hPBMCs, main study (Example 8, Study 1), whole panel; format: cell-based; conditions: LPS 5 ug/mL 24 hrs; up to 500 nM
Experimental: Human PBMCs frozen in a cryopreserve was thawed, washed with Hank's Balanced Salt Solution containing 10% Fetal bovine serum, and seeded onto a 24-well plate at a density of 1×10^6 cells/well with culture RPMI media containing 10% Fetal bovine serum in growth media in a 24 well plate for 12, 24, and 48 hrs and maintained at 37° C. in an atmosphere of 95% air and 5% CO2.
(§1) Human PBMCs were pretreated with YY-101, YDE-011, YDE-043 or reference compound; Xiidra® at various concentration (ranging from […] to 500 nM) for 2 h before stimulation. An equal volume of 0.5% DMSO was used as a vehicle control. Then, the cells were treated with LPS at 5 ug/ml, which was selected based on the pilot study. The supernatants from treated cells were harvested at 24 h and placed in a 96 well for Luminex cytokine & chemokine profiling using a Luminex 200 multiplex assay (Luminex; R&D system, USA).
(§2) The main study arm with triplicate wells per group in a 24-well plate: • 1. Blank • 2. PBMC: 0.5% DMSO • 3. PBMC+LPS (5 ug/ml) • 4. PBMC+YY-101 500 nM • 5. PBMC+YY-101 50 nM • 6. PBMC+YY-101 5 nM • 7. PBMC+YY-101 0.5 nM • 8. PBMC+LPS (5 ug/ml)+Xiidra® 500 nM • 9. PBMC+LPS (5 ug/ml)+Xiidra® 50 nM • 10. PBMC+LPS (5 ug/ml)+Xiidra® 5 nM • 11. PBMC+LPS (5 ug/ml)+Xiidra® 0.5 nM • 12. PBMC+LPS (5 ug/ml)+Xiidra® 0.05 nM • 13. PBMC+LPS (5 ug/ml)+Xiidra® 0.005 nM • 14. PBMC+LPS (5 ug/ml)+YY-101 500 nM • 15. PBMC+LPS (5 ug/ml)+YY-101 50 nM • 16. PBMC+LPS (5 ug/ml)+YY-101 5 nM • 17. PBMC+LPS (5 ug/ml)+YY-101 0.5 nM • 18. PBMC+LPS (5 ug/ml)+YY-101 0.05 nM • 19. PBMC+LPS (5 ug/ml)+YY-101 0.005 nM • 20. PBMC+LPS (5 ug/ml)+YDE-011 500 nM • 21. PBMC+LPS (5 ug/ml)+YDE-011 50 nM • 22. PBMC+LPS (5 ug/ml)+YDE-011 5 nM • 23. PBMC+LPS (5 ug/ml)+YDE-011 0.5 nM • 24. PBMC+LPS (5 ug/ml)+YDE-011 0.05 nM • 25. PBMC+LPS (5 ug/ml)+YDE-011 0.005 nM • 26. PBMC+LPS (5 ug/ml)+YDE-043 500 nM • 27. PBMC+LPS (5 ug/ml)+YDE-043 50 nM • 28. PBMC+LPS (5 ug/ml)+YDE-043 5 nM • 29. PBMC+LPS (5 ug/ml)+YDE-043 0.5 nM • 30. PBMC+LPS (5 ug/ml)+YDE-043 0.05 nM • 31. PBMC+LPS (5 ug/ml)+YDE-043 0.005 nM
Multiplex assay was used to measure 30 cytokines and chemokines. The 1:200 diluted cell supernatant and serial dilution of the standard were dispensed into a 96 well plate at 50 ul/well. Then, the pre-mixed cocktail of antibody-coated magnetic beads was dispensed at 50 ul/well and incubated at room temperature for 2 h in a horizontal orbital microplate shaker at 800±500 rpm. The beads were washed using a magnetic device to prevent loss. The biotin-antibody was dispensed in 50 ul of each well and incubated at room temperature for 1 h in a shaker at 800±500 rpm. […] The data was calculated with a standard five-parameter logistic nonlinear regression analysis of the data (xPonent software 4.2, USA). […]

[2] = test system: IL-2; experiment: Example 8 main study Luminex, LPS hPBMCs: IL-2; format: cell-based, human; conditions: for IL-2 Concentration, individual wells / IL-2 MFI, individual wells / IL-2 MFI, Mean / IL-2 Concentration, Mean: 24 h; for IL-2 MFI, Mean: LPS alone Mean 80.5; for IL-2 Concentration, Mean: LPS alone Mean 3988.7
Experimental: as §1, §2
(§3) Multiplex assay was used to measure 30 cytokines and chemokines. The 1:200 diluted cell supernatant and serial dilution of the standard were dispensed into a 96 well plate at 50 ul/well. Then, the pre-mixed cocktail of antibody-coated magnetic beads was dispensed at 50 ul/well and incubated at room temperature for 2 h in a horizontal orbital microplate shaker at 800±500 rpm. The beads were washed using a magnetic device to prevent loss. The biotin-antibody was dispensed in 50 ul of each well and incubated at room temperature for 1 h in a shaker at 800±500 rpm. After washing, streptavidin-PE was added at 50 ul/well and incubated at room temperature for 30 min in a shaker under the same conditions. Finally, after washing, wash buffer (100 ul/well) was added to the plate and incubated in a shaker for 2 min. The Luminex™ 200 setting were set according to the manufacturer's protocol. The data was calculated with a standard five-parameter logistic nonlinear regression analysis of the data (xPonent software 4.2, USA). Results were presented as concentration (ng/ml or pg/ml).

[3] = test system: TNF-alpha; experiment: Example 8 main study Luminex, LPS hPBMCs: TNF-alpha; format: cell-based, human; conditions: for TNF-alpha Concentration: individual replicates; for TNF-alpha Concentration (pg/ml), Mean: mean of replicates
Experimental: as §1, §2, §3

[4] = PBMC + LPS(5 ug/ml) + compound 0.005 nM
[5] = PBMC + LPS(5 ug/ml) + compound 0.05 nM
[6] = PBMC + LPS(5 ug/ml) + compound 0.5 nM
[7] = PBMC + LPS(5 ug/ml) + compound 5 nM
[8] = PBMC + LPS(5 ug/ml) + compound 50 nM
[9] = PBMC + LPS(5 ug/ml) + compound 500 nM
[10] = at as low as 5 μM, LPS 5 ug/mL 24 hrs
[11] = PBMC + LPS(5 ug/ml) + test article 0.005 nM
[12] = PBMC + LPS(5 ug/ml) + test article 0.05 nM
[13] = PBMC + LPS(5 ug/ml) + test article 0.5 nM
[14] = PBMC + LPS(5 ug/ml) + test article 5 nM
[15] = PBMC + LPS(5 ug/ml) + test article 50 nM
[16] = PBMC + LPS(5 ug/ml) + test article 500 nM

SMILES: CC(C)C[C@H](NC(=O)[C@H](CCC(N)=O)NC(=O)CNC(=O)[C@@H]1C[C@@H](O)CN1)C(=O)NCC(=O)O [YDE-043] (H-[Hyp]GQLG-OH; N-terminus and C-terminus assumed)
- LPS-induced cytokine/chemokine levels, whole panel (in words) [1]: more effectively lowered cytokine and chemokine production; also recorded: potently and significantly reduced pro-inflammatory cytokine/chemokine production
- IL-2 Concentration, individual wells [2, 4]: 2239.1 pg/mL and 2317.3 pg/mL and 3058.1 pg/mL
- IL-2 MFI, individual wells [2, 4]: 58.0 and 59.0 and 68.5
- IL-2 MFI, Mean [2, 4]: 61.8
- IL-2 Concentration, Mean [2, 4]: 2538.2 pg/mL
- IL-2 Concentration, individual wells [2, 5]: 2004.2 pg/ml and 2239.1 pg/ml (2×)
- IL-2 MFI, individual wells [2, 5]: 55.0 and 58.0 (2×)
- IL-2 MFI, Mean [2, 5]: 57.0
- IL-2 Concentration, Mean [2, 5]: 2160.8 pg/mL
- IL-2 Concentration, individual wells [2, 6]: 2082.5 pg/mL and 2317.3 pg/mL and 2121.7 pg/mL
- IL-2 MFI, individual wells [2, 6]: 56.0 and 59.0 and 56.5
- IL-2 MFI, Mean [2, 6]: 57.2
- IL-2 Concentration, Mean [2, 6]: 2173.8 pg/mL
- IL-2 Concentration, individual wells [2, 7]: 2785.6 pg/mL and 2395.5 pg/mL and 2473.6 pg/mL
- IL-2 MFI, individual wells [2, 7]: 65.0 and 60.0 and 61.0
- IL-2 MFI, Mean [2, 7]: 62.0
- IL-2 Concentration, Mean [2, 7]: 2551.6 pg/mL
- IL-2 Concentration, individual wells [2, 8]: 2551.7 pg/mL and 2395.5 pg/mL and 2239.1 pg/mL
- IL-2 MFI, individual wells [2, 8]: 62.0 and 60.0 and 58.0
- IL-2 MFI, Mean [2, 8]: 60.0
- IL-2 Concentration, Mean [2, 8]: 2395.4 pg/mL
- IL-2 Concentration, individual wells [2, 9]: 2004.2 pg/mL and 2082.5 pg/mL and 2239.1 pg/mL
- IL-2 MFI, individual wells [2, 9]: 55.0 and 56.0 and 58.0
- IL-2 MFI, Mean [2, 9]: 56.3
- IL-2 Concentration, Mean [2, 9]: 2108.6 pg/mL
- LPS-induced IL-2 (in words) [2, 10]: significantly reduced
- TNF-alpha Concentration [3, 11]: 2052.5 pg/mL and 1797.0 pg/mL and 2306.2 pg/mL
- TNF-alpha Concentration (pg/ml), Mean [3, 11]: 2051.9 pg/mL
- TNF-alpha Concentration [3, 12]: 1181.1 pg/mL and 1539.4 pg/mL and 1474.6 pg/mL
- TNF-alpha Concentration (pg/ml), Mean [3, 12]: 1398.4 pg/mL
- TNF-alpha Concentration [3, 13]: 1764.9 pg/ml and 1409.7 pg/ml (2×)
- TNF-alpha Concentration (pg/ml), Mean [3, 13]: 1528.1 pg/mL
- TNF-alpha Concentration [3, 14]: 1442.2 pg/mL and 2052.5 pg/mL and 1474.6 pg/mL
- TNF-alpha Concentration (pg/ml), Mean [3, 14]: 1656.4 pg/mL
- TNF-alpha Concentration [3, 15]: 2020.6 pg/mL and 1797.0 pg/mL and 1474.6 pg/mL
- TNF-alpha Concentration (pg/ml), Mean [3, 15]: 1764.1 pg/mL
- TNF-alpha Concentration [3, 16]: 1604.0 pg/mL and 1115.3 pg/mL and 1344.6 pg/mL
- TNF-alpha Concentration (pg/ml), Mean [3, 16]: 1354.6 pg/mL
- LPS-induced TNF-α (in words) [3, 10]: significantly reduced
